Assay results reported in article PMC9636434, “Discovery of small molecule agonists of the Relaxin Family Peptide Receptor 2” (Communications Biology, 2022).
“And” between values parts separate entries of the source, which are not always exact repeats. Identical values can stand only once. “Also recorded” adds a separate entry of the source. Like-named read-outs stand apart in the source and are kept apart here.

Legend:
mouse RXFP2 = target: T1, mouse RXFP2 (Mus musculus, UniProt Q91ZZ5); assay: CRE-luciferase reporter assay in HEK293T-CRE-Luc cells transiently transfected with mouse Rxfp2; type: cell-based
T1 construct: FLAG (N); expressed in transfected cells; host or cells: HEK293T-CRE-Luc (transient)
Excerpt: Therefore, we examined the capacity of the identified human RXFP2 agonists to activate murine RXFP2. […] The observed difference between CRE-luciferase reporter assays with human and mouse RXFP2 might be due to a lower expression of the receptor in transiently transfected mouse RXFP2 cells compared to the stably transfected human RXFP2 cell line.
HEK293T-CRE-Luc cells express luciferase under the control of the cAMP response element (CRE), which allows for indirect measurement of intracellular cAMP accumulation. HEK293T-CRE-Luc cells were stably transfected with human RXFP2 (HEK-CRE-Luc-RXFP2) or transiently transfected as above with mouse Rxfp2 (HEK-CRE-Luc-Rxfp2). HEK-CRE-Luc-RXFP2 and HEK-CRE-Luc-Rxfp2 cells were seeded at 15,000 and 30,000 cells per well, respectively, in 96-well plates using serum-free DMEM medium and incubated overnight at 37 °C, 5% CO2. After 18 h, cells were treated with a titration of compound, a titration of INSL3, 5 μM forskolin or DMSO vehicle. After treatment, cells were incubated for 3 h at 37 °C, 5% CO2. […] Plates were incubated for 40 min at room temperature protected from light and the luciferase output was read on a CLARIOstar plate reader. […]
Results are expressed as mean ± SEM of 3 independent experim ents. […]

CCKAR = CCKAR (Homo sapiens, UniProt P32238); assay: PRESTO-Tango β-arrestin recruitment, CCKAR; type: cell-based; conditions: 10 µM compound; basal level of detection 3-fold RLU
[1] = target: chimera RXFP1-2 (extracellular domain of RXFP1, transmembrane domain of RXFP2) (Homo sapiens, UniProt Q8WXD0); assay: HTRF cAMP assay in HEK293T cells transiently transfected with chimera RXFP1-2; type: cell-based; conditions: for Emax: HEK-293T
Protocol: (§1) Fig. 2 6641 is an allosteric agonist of RXFP2. a HEK-RXFP2 cells co-treated with serial dilutions of INSL3 B dimer antagonist and 30 nM INSL3 or 0.28 µM 6641. HTRF cAMP dose-response inhibition curves were normalized to activity without antagonist co-treatment as 0% inhibition. b HTRF cAMP assay in HEK293T cells transiently transfected with WT or chimeric receptors. Chimera RXFP2-1 contains the extracellular domain of RXFP2 and the transmembrane domain of RXFP1, while chimera RXFP1-2 contains the extracellular domain of RXFP1 and the transmembrane domain of RXFP2. For each receptor, cAMP response induced by INSL3 and 6641 was normalized to FSK (2 µM) as 100% efficacy and DMSO vehicle as 0% efficacy. Emax and EC50 were calculated using four parameter nonlinear fit dose-response curves. Results are expressed as mean ± SEM of 3 independent experiments. Diagrams of the chimeric receptors were produced using GPCRdb.org[58], [59].
(§2) Complementary RXFP2-1 and RXFP1-2 chimeric receptors were used to further investigate the involvement of the RXFP2 extracellular and transmembrane domains on 6641 activity. RXFP2-1 has the extracellular domain of RXFP2 and transmembrane domain of RXFP1, and RXFP1-2 is its complement.
(§3) The HTRF Gs dynamic cAMP assay kit (CisBio, Bedford, MA) was used to measure intracellular cAMP accumulation in HEK293T cells (ATCC, Manassas, VA)[56]. […] The cell stock was verified mycoplasma free and authenticated by ATCC. Transient transfection was accomplished by treating cells in a 6-well plate with a mixture of 2 μg plasmid and 6 μL Lipofectamine 2000 (Invitrogen, Waltham, MA) per manufacturer’s protocol and incubating overnight. For cAMP measurement in 96-well format, HEK293T cells stably transfected with human RXFP2 (HEK-RXFP2), human RXFP1 (HEK-RXFP1), mouse Rxfp1 (HEK-Rxfp1) or transiently transfected with human RXFP1-RXFP2 chimeric receptors were seeded between 7500 and 30,000 cells per well, depending on cell line responsiveness, in serum-free DMEM medium and incubated overnight at 37 °C, 5% CO2. After 18 h, cells were treated with a titration of compound, 2 μM forskolin, or DMSO vehicle. Control wells were also treated with a titration of INSL3 (Phoenix Pharmaceuticals, Burlingame, CA) or human recombinant relaxin 2 (Peprotech, Cranbury, NJ). For the RXFP2 antagonist experiment, cells were co-treated with 0.28 μM compound or 30 nM INSL3 and a titration of the INSL3 B dimer antagonist[38],[39]. For the INSL3 allosteric modulation experiment, cells were co-treated with 0.025, 0.0025, or 0.00025 μM of compound and a titration of INSL3. Cells were incubated for 1 h at 37 °C, 5% CO2, and then kit cAMP-d2 and anti-cAMP antibody were added per manufacturer protocol. Plates were incubated for 1 h at room temperature and the signal was read on a CLARIOstar plate reader (BMG Labtech, Ortenberg, Germany) at 665 and 620 nm emission wavelengths.

[2] = test system: chimera RXFP1-2 (extracellular domain of RXFP1, transmembrane domain of RXFP2); assay: as above; type: cell-based, human
Protocol: as §1, §2, §3

[3] = test system: osteoblast markers Alp, Col1a1, Osteocalcin, Runx2; assay: Quantitative RT-PCR of osteoblast markers in tibia after 8-week oral treatment; type: in vivo, mouse; conditions: normalized to control group, 10 mg/kg PO, 8 weeks, individual mice
[4] = 6641, individual experiments, read-out: EC50 (1)-(3)
[5] = 10 mg/kg PO 3 times per week, 8 weeks

T1 sequence (Q91ZZ5 whole entry): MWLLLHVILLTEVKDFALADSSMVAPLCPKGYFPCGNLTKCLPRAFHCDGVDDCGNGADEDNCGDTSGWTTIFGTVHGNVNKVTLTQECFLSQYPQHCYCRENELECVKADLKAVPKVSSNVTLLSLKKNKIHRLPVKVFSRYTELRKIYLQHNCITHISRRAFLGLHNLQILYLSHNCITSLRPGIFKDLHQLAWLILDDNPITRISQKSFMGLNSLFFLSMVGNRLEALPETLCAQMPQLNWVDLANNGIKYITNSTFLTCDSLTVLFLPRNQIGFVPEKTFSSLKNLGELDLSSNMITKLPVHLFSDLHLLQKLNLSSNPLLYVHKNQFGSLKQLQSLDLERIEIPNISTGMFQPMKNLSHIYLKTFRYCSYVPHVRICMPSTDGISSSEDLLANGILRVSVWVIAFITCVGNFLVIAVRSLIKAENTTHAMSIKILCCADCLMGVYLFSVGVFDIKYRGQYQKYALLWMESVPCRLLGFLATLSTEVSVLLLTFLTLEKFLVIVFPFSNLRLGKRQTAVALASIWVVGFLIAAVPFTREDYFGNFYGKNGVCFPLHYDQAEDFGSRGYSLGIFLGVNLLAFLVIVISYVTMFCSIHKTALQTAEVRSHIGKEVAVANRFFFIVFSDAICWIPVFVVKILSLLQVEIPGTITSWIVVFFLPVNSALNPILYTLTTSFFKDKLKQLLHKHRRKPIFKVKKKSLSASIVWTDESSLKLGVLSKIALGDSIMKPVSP
Sequence of chimera RXFP1-2 (extracellular domain of RXFP1, transmembrane domain of RXFP2) (Homo sapiens, UniProt Q8WXD0) (Q8WXD0 417-754 limits assumed, stated change not applied): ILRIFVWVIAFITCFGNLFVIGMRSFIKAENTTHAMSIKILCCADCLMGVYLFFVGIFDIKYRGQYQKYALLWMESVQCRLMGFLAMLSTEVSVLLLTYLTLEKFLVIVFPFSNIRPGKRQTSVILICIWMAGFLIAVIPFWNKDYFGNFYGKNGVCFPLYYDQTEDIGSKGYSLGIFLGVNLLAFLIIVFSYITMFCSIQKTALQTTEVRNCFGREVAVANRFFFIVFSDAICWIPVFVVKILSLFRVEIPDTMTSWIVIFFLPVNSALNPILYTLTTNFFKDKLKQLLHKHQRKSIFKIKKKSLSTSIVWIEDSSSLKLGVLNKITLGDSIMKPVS
Sequence of chimera RXFP1-2 (extracellular domain of RXFP1, transmembrane domain of RXFP2) (Homo sapiens, UniProt Q8WXD0) (Q9HBX9 1-409, stated change not applied, further chain): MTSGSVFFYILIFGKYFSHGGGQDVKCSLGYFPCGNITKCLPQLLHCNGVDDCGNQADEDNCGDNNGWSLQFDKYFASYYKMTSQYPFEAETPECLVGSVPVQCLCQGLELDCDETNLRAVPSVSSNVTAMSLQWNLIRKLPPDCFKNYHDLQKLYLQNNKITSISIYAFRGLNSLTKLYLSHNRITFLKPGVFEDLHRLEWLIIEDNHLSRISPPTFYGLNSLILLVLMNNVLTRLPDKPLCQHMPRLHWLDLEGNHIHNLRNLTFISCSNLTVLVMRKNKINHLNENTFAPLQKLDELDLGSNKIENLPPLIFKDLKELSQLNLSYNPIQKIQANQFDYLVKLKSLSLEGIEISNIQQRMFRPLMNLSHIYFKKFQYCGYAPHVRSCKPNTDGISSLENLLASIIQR
Sequence of chimera RXFP1-2 (extracellular domain of RXFP1, transmembrane domain of RXFP2) (Q8WXD0 417-754 limits assumed, change not shown): as the sequence (Q8WXD0 417-754 limits assumed, stated change not applied) above
Sequence of chimera RXFP1-2 (extracellular domain of RXFP1, transmembrane domain of RXFP2) (Q9HBX9 1-409, change not shown, further chain): as the sequence (Q9HBX9 1-409, stated change not applied, further chain) above
Sequence of CCKAR (P32238 whole entry, the tested form may be a part): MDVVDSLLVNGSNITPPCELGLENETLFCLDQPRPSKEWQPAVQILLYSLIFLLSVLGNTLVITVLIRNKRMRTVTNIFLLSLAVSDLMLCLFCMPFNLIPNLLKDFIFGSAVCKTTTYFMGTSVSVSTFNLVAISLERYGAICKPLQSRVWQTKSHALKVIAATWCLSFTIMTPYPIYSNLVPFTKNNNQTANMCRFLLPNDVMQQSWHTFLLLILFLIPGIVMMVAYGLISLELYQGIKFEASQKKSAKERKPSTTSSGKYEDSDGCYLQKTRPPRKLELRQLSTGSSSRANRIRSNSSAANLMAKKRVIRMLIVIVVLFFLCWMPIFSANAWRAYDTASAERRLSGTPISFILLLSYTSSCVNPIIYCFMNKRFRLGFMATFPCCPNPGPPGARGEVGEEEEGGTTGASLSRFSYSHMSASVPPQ

**Q.** Which activation at 0.0251 µM (mouse RXFP2; mouse RXFP2, Log [M] -7.60, experiments (1)-(3), read-out: % Eff (CRE-luciferase)) does the source give for `O=C1Nc2ccc(-c3cc(C(F)(F)F)cc(C(F)(F)F)c3)cc2C(=O)N2CCN(C(=O)COc3ccc(OC(F)(F)F)cc3I)C[C@@H]12` [compound 6641] here?
**A.** 28.9%

**Q.** What about the “agonism of mouse RXFP2 in CRE-luciferase reporter assay” value (mouse RXFP2; transiently transfected cells) of the same compound?
**A.** activate the mouse RXFP2 receptor; also recorded: full agonist

**Q.** And the “β-arrestin recruitment, CCKAR (mean ± SEM)” value (CCKAR)?
**A.** 3.42 ± 0.15 fold RLU

**Q.** What about the EC50 [1, 4] of the same compound?
**A.** 19 nM and 14 nM

**Q.** And the Emax ([1]; individual experiments, FSK (2 µM) = 100% efficacy, read-out: Emax (1)-(3))?
**A.** 96.5%

**Q.** What about the Emax ([1]; mean (± SEM) of 3, FSK (2 µM) = 100% efficacy, read-out: Emax (AVERAGE)) of the same compound?
**A.** 96.47 ± 0.43%

**Q.** And the EC50 [2, 4]?
**A.** 17 nM

**Q.** And the “Emax (1)-(3)” value ([2]; individual experiments, FSK (2 µM) = 100% efficacy)?
**A.** 95.72% and 97.22%

**Q.** What about the Alp gene expression [3] of the same compound?
**A.** No significant differences and 0.88 and 1.46 and 1.09 and 1.63 and 1.11 and 1.2 and 1.13 and 0.7 and 1.17 and 0.71 and 0.82 and 1.61 and 1.28 and 1.02

**Q.** And the Col1a1 gene expression [3]?
**A.** No significant differences and 1.04 and 1.44 and 0.9 and 1.62 and 0.96 and 1.32 and 0.82 and 1.12 and 1.24 and 0.81 and 0.88 and 1.29 and 0.93

**Q.** What about the Osteocalcin gene expression [3] of the same compound?
**A.** significant increase and 1.47 and 0.79 and 1.35 and 1.31 and 2.35 and 1.34 and 2.19 and 1.5 and 2.42 and 1.3 and 1.4 and 1.23 and 2.1 and 1.83 and 1.39

**Q.** What about the Runx2 gene expression [3] of the same compound?
**A.** decrease and 0.41 and 0.71 and 0.95 and 0.75 and 1.16 and 0.6 and 0.57 and 0.72 and 0.73 and 0.89 and 0.83 and 1.42 and 1.07 and 0.66

**Q.** What about the “body or organ (liver, kidney) weight vs vehicle” value [5] of the same compound?
**A.** No changes

**Q.** And the “histological analysis of livers and kidneys” value [5]?
**A.** did not show any changes in cell morphology

**Q.** And the “Left Kidney weight” value (Left Kidney, after 8-week oral treatment, individual mice)?
**A.** 0.4912 and 0.4654 and 0.4705 and 0.5626 and 0.5314 and 0.5304 and 0.5976 and 0.5317 and 0.5347 and 0.5015 and 0.5707 and 0.5055 and 0.4688 and 0.4947 and 0.545

**Q.** What about the Liver weight (Liver, after 8-week oral treatment, individual mice) of the same compound?
**A.** 4.014 and 3.487 and 3.8235 and 3.754 and 3.582 and 3.355 and 4.71 and 3.617 and 3.875 and 3.519 and 3.904 and 3.698 and 3.86 and 3.544 and 3.928

**Q.** And the “Right Kidney weight” value (Right Kidney, after 8-week oral treatment, individual mice)?
**A.** 0.5699 and 0.5019 and 0.5734 (2×) and 0.5889 and 0.5665 and 0.5265 and 0.5931 and 0.5579 and 0.5793 and 0.6089 and 0.5717 and 0.4908 and 0.5191 and 0.5352

**Q.** What about the “Body weight” value (day 18, individual mice) of the same compound?
**A.** 19.85 g and 17.73 g and 17.98 g and 16.95 g and 18.38 g and 18.83 g and 21.28 g and 19.38 g and 20.27 g and 20.03 g and 16.32 g and 20.68 g and 19.45 g and 18.87 g and 17.54 g

**Q.** What about the “Body weight” value (day 21, individual mice) of the same compound?
**A.** 19.93 g and 18.04 g and 17.94 g and 17.08 g and 17.98 g and 19.29 g and 21.67 g and 19.33 g and 20.02 g and 19.71 g and 16.43 g and 21.48 g and 19.84 g and 19.3 g and 18.07 g

**Q.** And the “Body weight” value (day 25, individual mice)?
**A.** 20.1 g and 18.01 g and 17.55 g and 16.7 g and 18.33 g and 19.06 g and 21.44 g and 20.16 g and 20.44 g and 20.28 g and 16.93 g and 21.61 g and 19.73 g and 19.34 g and 18.63 g

**Q.** What about the “Body weight” value (day 28, individual mice) of the same compound?
**A.** 19.97 g and 17.83 g and 17.52 g and 17.01 g and 18.4 g and 18.9 g and 22.31 g and 19.96 g and 21.2 g and 20.35 g and 17.55 g and 21.63 g and 20.55 g and 19.62 g and 18.84 g

**Q.** And the “Body weight” value (day 32, individual mice)?
**A.** 20.73 g and 18.54 g and 18.23 g and 16.58 g and 19.25 g and 19.78 g and 22.35 g and 20.74 g (2×) and 21.45 g and 17.18 g and 20.72 g and 20.18 g and 19.42 g and 18.61 g

**Q.** What about the “Body weight” value (day 35, individual mice) of the same compound?
**A.** 20.28 g and 18.14 g and 18.03 g and 17.15 g and 19.17 g and 19.71 g and 22.83 g and 20.57 g and 20.92 g and 19.8 g and 17.11 g and 22.36 g and 20.66 g and 20.25 g and 18.8 g

**Q.** And the “Body weight” value (day 39, individual mice)?
**A.** 20.17 g and 18.1 g and 17.93 g and 17.63 g and 19.64 g and 20.24 g and 22.43 g and 20.72 g and 21.92 g and 20.95 g
